In the NIST ThermoML archive (doi:10.1021/je050440b):
Numbers after ± are expanded uncertainties.

Assay: activity coefficient (dimensionless); of the first substance listed, at infinite dilution; xn = mol fraction of the nth substance listed
Details: Liquid, Chromatography, x1 = 0

CCCCCCO [hexan-1-ol] + CCCC[N+](C)(C)C.O=S(=O)([N-]S(=O)(=O)C(F)(F)F)C(F)(F)F
activity coefficient (343.65 K): 4.02 ± 0.27
activity coefficient (354.05 K): 3.58 ± 0.24
activity coefficient (364.45 K): 3.24 ± 0.22
activity coefficient (385.55 K): 2.67 ± 0.18

CCCCCC=O [hexanal] + CCCC[N+](C)(C)C.O=S(=O)([N-]S(=O)(=O)C(F)(F)F)C(F)(F)F
activity coefficient (322.75 K): 1.92 ± 0.13
activity coefficient (333.25 K): 1.9 ± 0.13
activity coefficient (343.55 K): 1.88 ± 0.13
activity coefficient (354.15 K): 1.85 ± 0.12
activity coefficient (364.65 K): 1.84 ± 0.12

CCCCCC [hexane] + CCCC[N+](C)(C)C.O=S(=O)([N-]S(=O)(=O)C(F)(F)F)C(F)(F)F
activity coefficient (301.85 K): 19.4 ± 1.3
activity coefficient (312.35 K): 18.1 ± 1.2
activity coefficient (322.85 K): 17.6 ± 1.2
activity coefficient (333.35 K): 16.3 ± 1.1

CO [methanol] + CCCC[N+](C)(C)C.O=S(=O)([N-]S(=O)(=O)C(F)(F)F)C(F)(F)F
activity coefficient (303.95 K): 1.55 ± 0.1
activity coefficient (312.05 K): 1.42 ± 0.09
activity coefficient (333.25 K): 1.15 ± 0.07
activity coefficient (343.65 K): 1.02 ± 0.06

CCCC(=O)OC [methyl butanoate] + CCCC[N+](C)(C)C.O=S(=O)([N-]S(=O)(=O)C(F)(F)F)C(F)(F)F
activity coefficient (311.65 K): 1.31 ± 0.09
activity coefficient (333.15 K): 1.26 ± 0.08
activity coefficient (364.45 K): 1.2 ± 0.08

CCCCCCC(=O)OC [methyl heptanoate] + CCCC[N+](C)(C)C.O=S(=O)([N-]S(=O)(=O)C(F)(F)F)C(F)(F)F
activity coefficient (343.55 K): 3.18 ± 0.22
activity coefficient (354.05 K): 3.01 ± 0.2
activity coefficient (364.55 K): 2.81 ± 0.19
activity coefficient (374.95 K): 2.64 ± 0.18
activity coefficient (385.45 K): 2.43 ± 0.17

CCCCCC(=O)OC [methyl hexanoate] + CCCC[N+](C)(C)C.O=S(=O)([N-]S(=O)(=O)C(F)(F)F)C(F)(F)F
activity coefficient (343.65 K): 2.43 ± 0.17
activity coefficient (354.05 K): 2.33 ± 0.16
activity coefficient (364.55 K): 2.19 ± 0.15
activity coefficient (374.95 K): 2.08 ± 0.14

CCCCC(=O)OC [methyl pentanoate] + CCCC[N+](C)(C)C.O=S(=O)([N-]S(=O)(=O)C(F)(F)F)C(F)(F)F
activity coefficient (322.75 K): 1.66 ± 0.11
activity coefficient (333.15 K): 1.63 ± 0.11
activity coefficient (364.55 K): 1.44 ± 0.09
activity coefficient (374.95 K): 1.33 ± 0.09

CCC(=O)OC [methyl propanoate] + CCCC[N+](C)(C)C.O=S(=O)([N-]S(=O)(=O)C(F)(F)F)C(F)(F)F
activity coefficient (311.65 K): 0.94 ± 0.06
activity coefficient (333.15 K): 0.92 ± 0.06
activity coefficient (343.75 K): 0.91 ± 0.06

CCCCCCCCC [nonane] + CCCC[N+](C)(C)C.O=S(=O)([N-]S(=O)(=O)C(F)(F)F)C(F)(F)F
activity coefficient (301.65 K): 67.5 ± 4.6
activity coefficient (312.15 K): 59.8 ± 4.1
activity coefficient (322.75 K): 52.6 ± 3.6
activity coefficient (333.25 K): 47.3 ± 3.2
activity coefficient (343.65 K): 43.2 ± 3
activity coefficient (354.05 K): 39 ± 2.7
activity coefficient (364.55 K): 36 ± 2.5
activity coefficient (374.95 K): 32.3 ± 2.2

C=CCCCCCC [oct-1-ene] + CCCC[N+](C)(C)C.O=S(=O)([N-]S(=O)(=O)C(F)(F)F)C(F)(F)F
activity coefficient (306.75 K): 22.9 ± 1.6
activity coefficient (312.98 K): 22 ± 1.5
activity coefficient (322.55 K): 20.4 ± 1.4
activity coefficient (333.25 K): 19 ± 1.3
activity coefficient (343.65 K): 17.2 ± 1.2
activity coefficient (354.05 K): 16.2 ± 1.1
activity coefficient (364.55 K): 15.1 ± 1

CCCCCCCC=O [octanal] + CCCC[N+](C)(C)C.O=S(=O)([N-]S(=O)(=O)C(F)(F)F)C(F)(F)F
activity coefficient (364.64 K): 3.53 ± 0.24
activity coefficient (374.95 K): 3.48 ± 0.24
activity coefficient (385.45 K): 3.44 ± 0.23
activity coefficient (395.95 K): 3.37 ± 0.23

CCCCCCCC [octane] + CCCC[N+](C)(C)C.O=S(=O)([N-]S(=O)(=O)C(F)(F)F)C(F)(F)F
activity coefficient (301.62 K): 45.4 ± 3.1
activity coefficient (312.15 K): 41 ± 2.8
activity coefficient (322.75 K): 37.2 ± 2.5
activity coefficient (333.25 K): 34.1 ± 2.3

CCCCCO [pentan-1-ol] + CCCC[N+](C)(C)C.O=S(=O)([N-]S(=O)(=O)C(F)(F)F)C(F)(F)F
activity coefficient (322.85 K): 3.85 ± 0.26
activity coefficient (333.15 K): 3.39 ± 0.23
activity coefficient (343.65 K): 3.01 ± 0.2
activity coefficient (354.05 K): 2.72 ± 0.19
activity coefficient (364.45 K): 2.45 ± 0.17

CCCCC=O [pentanal] + CCCC[N+](C)(C)C.O=S(=O)([N-]S(=O)(=O)C(F)(F)F)C(F)(F)F
activity coefficient (301.75 K): 1.71 ± 0.11
activity coefficient (312.25 K): 1.65 ± 0.11
activity coefficient (322.75 K): 1.62 ± 0.11
activity coefficient (333.25 K): 1.57 ± 0.1
activity coefficient (343.55 K): 1.5 ± 0.1
activity coefficient (354.15 K): 1.46 ± 0.1

CCCCC [pentane] + CCCC[N+](C)(C)C.O=S(=O)([N-]S(=O)(=O)C(F)(F)F)C(F)(F)F
activity coefficient (301.85 K): 13.7 ± 0.93
activity coefficient (322.85 K): 13.9 ± 0.95

CCCCCc1ccccc1 [pentylbenzene] + CCCC[N+](C)(C)C.O=S(=O)([N-]S(=O)(=O)C(F)(F)F)C(F)(F)F
activity coefficient (354.05 K): 7.92 ± 0.54
activity coefficient (364.45 K): 7.69 ± 0.52
activity coefficient (374.95 K): 7.36 ± 0.5
activity coefficient (385.45 K): 7.07 ± 0.48

CCCO [propan-1-ol] + CCCC[N+](C)(C)C.O=S(=O)([N-]S(=O)(=O)C(F)(F)F)C(F)(F)F
activity coefficient (301.75 K): 2.76 ± 0.19
activity coefficient (312.15 K): 2.43 ± 0.17
activity coefficient (322.85 K): 2.14 ± 0.15
activity coefficient (333.35 K): 1.9 ± 0.13

CC(C)O [propan-2-ol] + CCCC[N+](C)(C)C.O=S(=O)([N-]S(=O)(=O)C(F)(F)F)C(F)(F)F
activity coefficient (302.55 K): 2.4 ± 0.16
activity coefficient (312.15 K): 2.14 ± 0.15
activity coefficient (322.85 K): 1.89 ± 0.13
activity coefficient (333.35 K): 1.67 ± 0.11
activity coefficient (343.65 K): 1.53 ± 0.1
activity coefficient (354.05 K): 1.37 ± 0.09

CCC=O [propanal] + CCCC[N+](C)(C)C.O=S(=O)([N-]S(=O)(=O)C(F)(F)F)C(F)(F)F
activity coefficient (301.65 K): 0.58 ± 0.04
activity coefficient (312.25 K): 0.57 ± 0.04
activity coefficient (322.75 K): 0.54 ± 0.04
activity coefficient (333.25 K): 0.53 ± 0.04
activity coefficient (343.55 K): 0.52 ± 0.04

CCCc1ccccc1 [propylbenzene] + CCCC[N+](C)(C)C.O=S(=O)([N-]S(=O)(=O)C(F)(F)F)C(F)(F)F
activity coefficient (333.25 K): 3.95 ± 0.27
activity coefficient (343.65 K): 3.86 ± 0.26
activity coefficient (354.05 K): 3.79 ± 0.26
activity coefficient (364.45 K): 3.69 ± 0.25

Cc1ccccc1 [toluene] + CCCC[N+](C)(C)C.O=S(=O)([N-]S(=O)(=O)C(F)(F)F)C(F)(F)F
activity coefficient (322.75 K): 1.73 ± 0.12
activity coefficient (333.25 K): 1.71 ± 0.11
activity coefficient (343.65 K): 1.7 ± 0.11
activity coefficient (364.45 K): 1.68 ± 0.11

ClC(Cl)Cl [trichloromethane] + CCCC[N+](C)(C)C.O=S(=O)([N-]S(=O)(=O)C(F)(F)F)C(F)(F)F
activity coefficient (301.75 K): 1.03 ± 0.06
activity coefficient (312.15 K): 1.04 ± 0.07
activity coefficient (333.25 K): 1.04 ± 0.07

CCCCCCCCCCC [undecane] + CCCC[N+](C)(C)C.O=S(=O)([N-]S(=O)(=O)C(F)(F)F)C(F)(F)F
activity coefficient (333.25 K): 94.4 ± 6.5
activity coefficient (343.65 K): 83.9 ± 5.8
activity coefficient (354.05 K): 73.3 ± 5
activity coefficient (364.55 K): 66.3 ± 4.5
activity coefficient (374.95 K): 56 ± 3.8
